This is an account of results in publication PMC2893943 (Nanoscale Research Letters, 2010).

For data set [1], the system named is LPS-induced inflammation model in rats. Format: in vivo, Sprague–Dawley rats. As to conditions: for ED50 based on neutrophil infiltration and cytokine production data: IT instillation of nanosuspension; for ED50 based on neutrophil infiltration and cytokine production data / EDmax / dose of maximum effect (EDmax): rat LPS model; for ED50 in the LPS assay: IT nanosuspension prior to LPS challenge, inhibition of neutrophil infiltration or TNFα production in BALF; for EDmax / dose of maximum effect (EDmax): IT nanosuspension.

The subject of data set [2] is adrenal. As to the kind of experiment: six-day repeat dose side effect study: adrenal involution. As to conditions: at the ED50 dose (30 μg fluticasone, 100 μg ciclesonide), IT once daily, 6 days. The data set is classed as in vivo, Sprague–Dawley rats.
Data set [3] has as its system thymus. As to the kind of experiment: six-day repeat dose side effect study: thymus involution. The data set is classed as in vivo, Sprague–Dawley rats. The settings on record: at the ED50 dose, IT once daily, 6 days.
Data set [4] is described as follows: particle size distribution before and after wet milling. The data set is classed as physicochemical. As to conditions: for particle size D50 of the bulk material: before micronization; for particle size D50 after micronization: nanosuspension, wet milling.
For data set [5], the system named is antigen-induced airway inflammation (eosinophils in BALF). As to conditions: cited from earlier work; for ED50, antigen-induced influx of eosinophils in airway BALF and lung tissue: IT-administered; for ED50 for the inhibition of eosinophil infiltration into BALF: as quoted with the 7-day side effect study.
The test system of data set [6] is adrenal. As to conditions: 7-day study, cited from earlier work.
Data set [7] has as its system thymus. The settings on record: 7-day study, cited from earlier work.
In data set [8] the test system is bone growth. As to conditions: 7-day study; cited from earlier work.
Data set [9] has as its system plasma corticosterone (HPA axis suppression). The settings on record: fluticasone 0.1 mg/kg; ciclesonide 0.01 to 0.1 mg/kg/day; 28-day; cited from earlier work.
The conditions of data set [10]: cited from earlier work.
Data set [11] is described as follows: six-day repeat dose side effect study: plasma drug exposure by LC/MS/MS. Format: in vivo, Sprague–Dawley rats. The settings on record: 2 h post the last dose.
For data set [12], the system named is plasma corticosterone (HPA axis suppression). The experiment in a line: six-day repeat dose side effect study: plasma corticosterone level. The data set is classed as in vivo, Sprague–Dawley rats. As to conditions: ED50 doses, 30 μg fluticasone, 2 h following the last dose.
The conditions of data set [13]: background statement, no reference given; cited from earlier work.
[14] abbreviates: IT administration, on the basis of dose.

For orientation: bioavailability means the share of a dose that reaches the circulation, judged against a reference dose that is usually intravenous.

`CC(C)C(=O)OCC(=O)[C@@]12O[C@H](C3CCCCC3)O[C@@H]1C[C@H]1[C@@H]3CCC4=CC(=O)C=C[C@]4(C)[C@H]3[C@@H](O)C[C@@]12C` [ciclesonide]: the “fold less potent than fluticasone (ratio of ED50)” value in data set [1] (100 μg/30 μg) is “threefold”. Further, in [1], the “ED50 based on neutrophil infiltration and cytokine production data” value is on record as 0.1 mg; the “ED50 in the LPS assay” value worked out at 100 µg; the EDmax is listed as 0.3 mg; the “dose of maximum effect (EDmax)” value is 300 µg. Moreover, the average adrenal involution in data set [2] was 7.6 ± 5.3%. In addition, the average thymus involution in [3] is reported as 41.0 ± 4.3%. Moreover, in [4], the “particle size D50 of the bulk material” value is reported as 56 μm and the “particle size D50 after micronization” value stood at 0.22 μm. Also, in [5], the “ED50, antigen-induced influx of eosinophils in airway BALF and lung tissue” value is on record as 0.49 mg/kg; the “ED50 for the inhibition of eosinophil infiltration into BALF” value was 0.75 mg/kg. In data set [5] (antigen-induced airway eosinophilia and Sephadex-induced lung edema), the “fold less potent than fluticasone in terms of ED50” value is given as 7–9. In addition, the “ED50, inhibition of accumulation of eosinophils in BALF” value in data set [5] (separate study, same preclinical model) was 0.5 mg/kg. The “fold less potent than fluticasone at inducing adrenal involution” value in data set [6] is reported as 44. Also, the “fold less potent than fluticasone at inducing thymus involution” value in [7] is “sixfold”. The “fold less potent than fluticasone at decreasing bone growth” value in [8] is given as 22. In addition, the “effect on plasma corticosterone levels” value in data set [9] is reported as “did not change corticosterone levels”. For the same compound, in data set [10], the plasma protein binding was greater than 99%.

In the case of `C[C@]12C=CC(=O)C=C1CC[C@@H]1[C@@H]2[C@@H](O)C[C@@]2(C)[C@H]1C[C@H]1O[C@@H](C3CCCCC3)O[C@]12C(=O)CO` [des-CIC, desisobutyryl-ciclesonide], the “ratio of systemic exposure, des-CIC versus fluticasone at ED50 doses” value in data set [11] is given as “greater than sixfold”. Moreover, in [10], the plasma protein binding is listed as greater than 99%.

As to `CCC(=O)O[C@]1(C(=O)SCF)[C@H](C)C[C@H]2[C@@H]3C[C@H](F)C4=CC(=O)C=C[C@]4(C)[C@@]3(F)[C@@H](O)C[C@@]21C` [fluticasone, fluticasone propionate], in data set [1], the “ED50 based on neutrophil infiltration and cytokine production data” value amounted to 0.03 mg; the “ED50 in the LPS assay” value stood at 30 µg; the EDmax was determined as 0.1 mg; the “dose of maximum effect (EDmax)” value is 100 µg. In addition, the average adrenal involution in data set [2] is reported as 16.6 ± 5.1%. In addition, the average thymus involution in [3] was found to be 59.5 ± 5.8%. Moreover, the “fold lower level of plasma corticosterone than 100 μg ciclesonide” value in [12] is listed as “approximately 10”. Also, in [4], the “particle size D50 of the bulk material” value was found to be 35 μm and the “particle size D50 after micronization” value is reported as 0.24 μm. In addition, in data set [5], the “ED50, antigen-induced influx of eosinophils in airway BALF and lung tissue” value was 0.068 mg/kg; the “ED50 for the inhibition of eosinophil infiltration into BALF” value is 0.095 mg/kg. Further, the “fold more potent at inducing adrenal involution compared to ciclesonide” value in data set [6] (setting [14]) was “approximately 44”. For the same compound, the “fold more potent at inducing thymus involution compared to ciclesonide” value in data set [7] (setting [14]) is recorded as “sixfold”. Besides, in [9], the “effect on plasma corticosterone levels” value is given as “significantly suppressed”. Also, the plasma protein binding in data set [10] is reported as 90%. Moreover, in data set [13], the bioavailability is less than 1% and the clearance result is “~ liver blood flow”.
